Values of other authors as cited in patent publication US20260216122A1, “PHARMACEUTICAL COMPOSITION COMPRISING ENAVOGLIFLOZIN AND METFORMIN” (DAEWOONG PHARMACEUTICAL CO., LTD., priority 2022, published 2026).
Where two headings read alike, the source gives them in different places.

Row | SMILES | Tmax (enavogliflozin) | Tmax (metformin, administered after a meal) | Tmax (metformin, administered before a meal)
1 | OC[C@H]1O[C@@H](c2cc(Cc3ccc(C4CC4)cc3)c(Cl)c3c2CCO3)[C@H](O)[C@@H](O)[C@@H]1O [enavogliflozin, (2S,3R,4R,5S,6R)-2-(7-chloro-6-(4-cyclopropylbenzyl)-2,3-dihydrobenzofuran-4-yl)-6-(hydroxymethyl)tetrahydro-2H-pyran-3,4,5-triol] | approximately 1 hour |  | 
2 | CN(C)C(=N)N=C(N)N [Metformin] |  | approximately 6 hours | approximately 4 hours
